“Also recorded” adds a separate entry of the source.
Tests used:
Type in all cases: in vivo
[1] = test system: PD-LID rat model; assay: ON score and ON time without dyskinesia in PD-LID rat model; settings: for total ON score (Locomotive behavior) in 3 hours: levodopa 5 min later
Experimental: To make a PD-LID rat model, a mixture of levodopa methyl ester hydrochloride (6 mg/kg; Sigma-Aldrich) dissolved in saline and benserazide hydrochloride (15 mg/kg; Sigma-Aldrich) (hereinafter, also referred to as “levodopa containing solution”) was intraperitoneally administered once daily to 6-OHDA-lesioned rats. The levodopa containing solution was repeatedly administered for 3 weeks or longer to observe and evaluate the behavior. The behavior was observed and evaluated in a transparent acrylic cage for 1 minute every 20 minutes after 20 minutes from the intraperitoneal administration of the levodopa containing solution, up until after 3 hours from administration. […] Individuals with a total AIMs score of less than 10 were excluded from the test as not manifesting a dyskinesia-like symptom. The behavior was observed and evaluated before the drug evaluation date. […] For an indicator of dyskinesia behavior, the sum of the Limb AIMs, Axial AIMs, and Orolingual AIMs at each evaluation point was used as the AIMs score. For the rotational behavior (ON score), Locomotive behavior at each evaluation point was used as an indicator. […] For ON time without dyskinesia, the period during which the AIMs score is 0 and Locomotive behavior is 1 or greater at each evaluation point was added. Duration of action of levodopa without a dyskinesia symptom (ON time without dyskinesia) refers to the aggregate time with no dyskinesia during the antiparkinsonian action effective time, i.e., “ON-time”, and defined as the time during which the dyskinesia symptom (AIMs) score is 0 and the rotational behavior (Locomotive behavior) score is 1 or greater at each evaluation point after levodopa administration. […] After 5 minutes, a levodopa containing solution was intraperitoneally administered, and the behavior was observed and evaluated. The results in the drawings are indicated in terms of mean value±standard error. […] For evaluation of a tape agent, the abdominal regions of the rats were shaved prior to the evaluation date. […] After 4 hours from application, a levodopa containing solution was intraperitoneally administered to observe and evaluation the behavior. The results in the drawings are indicated in terms of mean value±standard error. Individuals with 50% or more of the tape agent coming off during the test were excluded from analysis.

[2] = test system: PD-LID rat model; assay: Dyskinesia-like symptom (AIMs) score in PD-LID rat model
[3] = test system: PD-LID rat model; assay: as above; settings: continuous subcutaneous infusion 60 mg/mL (mean 0.78 mg/kg/hour); day 0 of implanting the pump; vs solvent group
Experimental: To make a PD-LID rat model, a mixture of levodopa methyl ester hydrochloride (6 mg/kg; Sigma-Aldrich) dissolved in saline and benserazide hydrochloride (15 mg/kg; Sigma-Aldrich) (hereinafter, also referred to as “levodopa containing solution”) was intraperitoneally administered once daily to 6-OHDA-lesioned rats. The levodopa containing solution was repeatedly administered for 3 weeks or longer to observe and evaluate the behavior. The behavior was observed and evaluated in a transparent acrylic cage for 1 minute every 20 minutes after 20 minutes from the intraperitoneal administration of the levodopa containing solution, up until after 3 hours from administration. […] The sum of the scores for Limb AIMs, Axial AIMs, and Orolingual AIMs in 3 hours was used as the total dyskinesia-like symptom (AIMs) score. Individuals with a total AIMs score of less than 10 were excluded from the test as not manifesting a dyskinesia-like symptom. The behavior was observed and evaluated before the drug evaluation date. The rats were assigned to each dosing group by using the 3 hour total dyskinesia-like symptom (AIMs) score, Locomotive behavior score, and rat body weight as indicators, which were used for evaluation of drugs. […]
After 4 hours from application, a levodopa containing solution was intraperitoneally administered to observe and evaluate the behavior. Individuals with 50% or more of the tape agent coming off during the test were excluded from analysis. […]
As in Example 2, a levodopa containing solution was repeated administered to 6-0HDA-lesioned rats for 3 weeks or longer to observe and evaluate the behavior. The behavior was observed and evaluated before the drug evaluation date. The rats were assigned to each dosing group by using the 3 hour dyskinesia-like symptom (AIMs) score, Locomotive behavior score, and rat body weight as indicators, which were used for evaluation of drugs. However, individuals with a total AIMs score of less than 10 were excluded from the test as lacking manifestation of a dyskinesia-like symptom. Individuals with a body weight deviating 10% or more from the mean body weight were also excluded from the test to minimize variation in the dosage for each individual. […]
After 4 hours, a levodopa containing solution was administered to observe and evaluate the behavior. […]
The prepared solution was used after injection into an ALZET® Osmotic Pump MODEL 2ML2 (4.53 μL/hour; DURECT) for releasing a drug solution at a stable rate for 2 weeks. […]
The behavior was observed and evaluated using the same method as Example 2. […] After 5 minutes, a levodopa containing solution was intraperitoneally administered, and the behavior was observed and evaluated. The results in the drawings are indicated in terms of mean value […] standard error. The test results were statistically analyzed by comparison with the solvent administration group by Steel test using the total dyskinesia-like symptom (AIMs) score in 3 hours and total dyskinesia-like symptom score in 100 to 180 minutes as parameters. * indicates p<0.05, meaning that there is a significant difference.
The behavior was observed and evaluated using the same method in Example 2. […] The test results were statistically analyzed by comparison with the solvent administration group by Steel test by using the total dyskinesia-like symptom (AIMs) score in 3 hours and total dyskinesia-like symptom score in 100 to 180 minutes as parameters.

[4] = oral 67 mg/kg as free form (100 mg/kg as citrate)

tandospirone citrate
(iii) Duration of action of levodopa without dyskinesia symptom (ON time without dyskinesia) ([1]; oral 20 mg/kg as free form (30 mg/kg as citrate), vs solvent group): increase in ON time without dyskinesia | total ON score (Locomotive behavior) in 3 hours ([1]; oral 30 mg/kg as citrate, vs solvent group): increase in the total ON score | (iii) Duration of action of levodopa without dyskinesia symptom (ON time without dyskinesia) ([1]; oral 67 mg/kg as free form (100 mg/kg as citrate), prolongation vs solvent group): significant prolongation in the ON-time without dyskinesia; also recorded: increase in ON time without dyskinesia | total ON score (Locomotive behavior) in 3 hours ([1]; oral 100 mg/kg as citrate, vs solvent group): increase in the total ON score | dyskinesia-like symptoms (total AIMs score in 3 hours) ([2]; continuous subcutaneous infusion 60 mg/mL (mean 0.78 mg/kg/hour), day 13 of implanting the pump, vs solvent group): significant improvement in dyskinesia-like symptoms | (i) Degree of improvement in indicator of dyskinesia symptom (total AIMs score in 3 hours, solvent minus tandospirone group) ([2]; oral 6.7 mg/kg as free form (10 mg/kg as citrate)): significant change in the total AIMs score was not observed | (i) Degree of improvement in indicator of dyskinesia symptom (total AIMs score in 3 hours, solvent minus tandospirone group) ([2]; oral 20 mg/kg as free form (30 mg/kg as citrate)): significant change in the total AIMs score was not observed | (ii) Indicator of rebound symptom of dyskinesia (total dyskinesia-like symptom score in 100 to 180 minutes, solvent minus tandospirone group) ([2]; oral 20 mg/kg as free form (30 mg/kg as citrate), experiment printed as (FIG. 7)): significant increase in the total AIMs score | (ii) Indicator of rebound symptom of dyskinesia (total dyskinesia-like symptom score in 100 to 180 minutes, solvent minus tandospirone group) ([2]; oral 20 mg/kg as free form (30 mg/kg as citrate), experiment printed as (FIGS. 8A-8B)): significant increase in the total AIMs score | (i) Degree of improvement in indicator of dyskinesia symptom (total AIMs score in 3 hours, solvent minus tandospirone group) [2, 4]: significant change in the total AIMs score was not observed | (ii) Indicator of rebound symptom of dyskinesia (total dyskinesia-like symptom score in 100 to 180 minutes, solvent minus tandospirone group) [2, 4]: significant increase in the total AIMs score | dyskinesia-like symptoms (total AIMs score in 3 hours) [3]: Significant improvement in dyskinesia-like symptoms
